We go through 16 compounds from ChEMBL document CHEMBL1122420, “Parasympatholytic (anticholinergic) esters of the isomeric 2-tropanols. 2. Non-glycolates” (J Med Chem, 1983).

The nature of series [1]: LD50 in mice following i.v. administration. The series is classed as organism-based. Conditions: mouse, in vivo, iv.
The next series deals with Mus musculus. The experiment in a line: Induction of mydriasis in mice following s.c. administration. The series is classed as functional. The note with it: sc.

As for `CN1C2CCC1[C@H](OC(=O)N1c3ccccc3Sc3cccnc31)CC2` (single isomer, unassigned; (+)), the LD50 in series [1] came out at 32 mg/kg. Moreover, the ED50 in the series with Mus musculus came to 5.6 mg/kg.
`CN1C2CCC1[C@H](OC(=O)C(CO)c1ccccc1)CC2` (single isomer, unassigned; (+)) came in with an LD50 in series [1] of 50 mg/kg. Besides, the ED50 in the series on Mus musculus worked out at 0.1 mg/kg.
The like results for `CN1C2CCC1[C@H](OC(=O)C(OCc1ccccc1)(c1ccccc1)c1ccccc1)CC2.Cl` (single isomer, unassigned; (+)) were, in that order, 56 mg/kg and 5.6 mg/kg.
In series [1], `CCCC(C(=O)O[C@@H]1CCC2CCC1N2C)(c1ccccc1)c1ccccc1` (single isomer, unassigned; (+)) displayed an LD50 of 18 mg/kg. Also, the 50% effective dose (ED50) in the series with Mus musculus was over 10 mg/kg.
Compound `CN1C2CCC1[C@H](OC(=O)c1cc(=O)c3ccccc3o1)CC2` (single isomer, unassigned; (+)) had an LD50 in series [1] of 100 mg/kg. This compound also displayed an ED50 in the series with Mus musculus of over 10 mg/kg.
For the compound `CN1C2CCC1[C@H](OC(=O)C(Cl)(c1ccccc1)c1ccccc1)CC2.Cl` (single isomer, unassigned; (+)), the LD50 in series [1] was 22 mg/kg. The 50% effect level in the series on Mus musculus (ED50) was put at a dose of 0.03 mg/kg.
Turning to `CN1C2CCC1[C@H](OC(=O)C1c3ccccc3CCc3ccccc31)CC2` (single isomer, unassigned; (+)), the LD50 in series [1] was determined as 32 mg/kg. The ED50 in the series on Mus musculus worked out at 5.6 mg/kg.
In the series with Mus musculus, `CN1[C@@H]2C[C@@H](OC(=O)[C@H](CO)c3ccccc3)C[C@H]1[C@@H]1O[C@@H]12` [SCOPOLAMINE] gave an ED50 of 0.012 mg/kg.
In turn, `CN1C2CCC1[C@H](OC(=O)CC(O)(c1ccccc1)c1ccccc1)CC2` (single isomer, unassigned; (+)) showed an LD50 in series [1] of 18 mg/kg. For the same compound, in the series with Mus musculus, the ED50 is over 10 mg/kg.
The compound `CN1[C@@H]2CC[C@H]1C[C@@H](OC(=O)C(CO)c1ccccc1)C2` (stereo not given in full) [ATROPINE] gave an ED50 in the series on Mus musculus of 0.061 mg/kg.
For the compound `COc1cc(C(=O)O[C@H]2CCC3CCC2N3C)cc(OC)c1OC` (single isomer, unassigned; (-)), in series [1], the LD50 turned out to be 18 mg/kg. Further, the ED50 in the series on Mus musculus was over 10 mg/kg.
On to `CN1C2CCC1[C@H](OC(=O)C13CC4CC(CC(C4)C1)C3)CC2` (single isomer, unassigned; (+)), for which the LD50 in series [1] was 32 mg/kg. Besides, the ED50 in the series with Mus musculus was over 10 mg/kg.
Consider `CCCOC(C(=O)O[C@@H]1CCC2CCC1N2C)(c1ccccc1)c1ccccc1` (single isomer, unassigned; (+)), for which the LD50 in series [1] was 22 mg/kg. The compound further yielded an ED50 in the series on Mus musculus of 0.94 mg/kg.
In turn, `COc1cc(C(=O)O[C@@H]2CCC3CCC2N3C)cc(OC)c1OC` (single isomer, unassigned; (+)) gave an LD50 in series [1] of 56 mg/kg. The compound also showed an ED50 in the series on Mus musculus of 32 mg/kg.
`CN1C2CCC1[C@H](OC(=O)C(F)(c1ccccc1)c1ccccc1)CC2` (single isomer, unassigned; (+)) showed an LD50 in series [1] of 36 mg/kg. The compound also yielded an ED50 in the series with Mus musculus of 0.25 mg/kg.
As to `CN1C2CCC1[C@@H](OC(=O)C1c3ccccc3CCc3ccccc31)CC2` (single isomer, unassigned; (-)), in series [1], the LD50 was 18 mg/kg. Moreover, the ED50 with Mus musculus is over 10 mg/kg.

In general, LD50 refers to the dose at which mortality reaches 50%. A low value points to a more toxic substance. As usually defined, the ED50 is the midpoint of the dose-response relation. A low value points to greater potency.
